Data from patent US20060110407A1 (priority 2001, published 2006).

Legend:
Vaccinia strain IHD-J = tested on: Vaccinia strain IHD-J; set-up: species or system Balb/c mice; details: mouse, in vivo
[1] = tested on: camelpox, cowpox, monkeypox, and vaccinia viruses; details: cited from earlier work

SMILES	Mean (number of pocks per tail) (Vaccinia strain IHD-J)	Mean difference compared to negative control (Saline) (Vaccinia strain IHD-J)	effectiveness in treating Orthopoxvirus infections [1]
Nc1ccn(C[C@@H](CO)OCP(=O)(O)O)c(=O)n1 [Cidofovir ™, Cidofovir]	24.2	−17.7	effective
Nc1nc2c(ncn2CCC(CO)CO)c(=O)[nH]1 [penciclovir]	–	–	effective
COc1c(C)c2c(c(O)c1C/C=C(\C)CCC(=O)O)C(=O)OC2 [mycophenolic acid]	–	–	effective
CC(=O)OCC(CCn1cnc2cnc(N)nc21)COC(C)=O [famciclovir]	–	–	effective
NC(=O)c1ncn([C@@H]2O[C@H](CO)[C@@H](O)[C@H]2O)n1 [ribavirin]	–	–	effective
